Test results: patent US20110311455A1, “EN[…] GUIDED IMAGING AND […]” (THE REGENTS OF THE UNIVERSITY OF CALIFORNIA, priority 2008, published 2011)

Tested on: normal human bronchial epithelial cells (LHS-9)
Assay: Cellular fluorescence imaging of cells incubated with OVG's or free ICG
Type: cell-based
Settings: 2 hr post-incubation; ICG 10 μg/ml
Experimental: The cells were cultured for 24 hours in serum free culture medium supplied by the commercial vendor. […] An optical filter that allowed transmission of NIR light greater than 780 nm was used to capture the fluorescent signal onto a CCD camera.

CC1(C)C(/C=C/C=C/C=C/C=C2\N(CCCCS(=O)(=O)O)c3ccc4ccccc4c3C2(C)C)=[N+](CCCCS(=O)(=O)[O-])c2ccc3ccccc3c21 [ICG, indocyanine green]
localization in cells (confocal fluorescent images): remains mostly localized to the “rim” of the cells
